Holding throughout (assay type): cell-based
Assay [1] concerns Vibrio parahaemolyticus KCTC 27. Nature of the assay: MIC by broth dilution method. The following applies: V. parahaemolyticus, 37° C., 24 hours. In general terms: Broth dilution looks for growth in wells or tubes with falling amounts of substance.
Assay [2] has as its system Staphylococcus aureus KCTC 1916. Nature of the assay: MIC by broth dilution method. Particulars: S. aureus, 37° C., 24 hours.
The subject of assay [3] is Salmonella enteritidis KCTC 12400. The assay can be described thus: MIC by broth dilution method. Particulars: S. enteritidis, 37° C., 24 hours.
Assay [4] concerns Salmonella typhimurium KCTC 2514. Nature of the assay: MIC by broth dilution method. The following applies: S. typhimurium, 37° C., 24 hours.
In assay [5] the test system is Escherichia coli KCTC 1039. Nature of the assay: MIC by broth dilution method. The following applies: E. coli, 37° C., 24 hours.
The test system of assay [6] is 18 species of pathogenic bacteria (aerobic). Nature of the assay: Agar diffusion antibacterial test, overall (aerobic). The following applies: all kinds of bacteria (aerobic); treatment concentration of 1.0%. (In general: A growth-free zone around the sample is the usual read-out of agar diffusion tests.)
In assay [7] the test system is 8 anaerobic bacterial species. The assay can be described thus: Agar diffusion antibacterial test, overall (anaerobic). Particulars: anaerobic bacteria; concentration of 1.0%.

For `O=C1C(N(CO)C(=O)NCO)N(CO)C(=O)N1CO` (stereo not drawn) [Germall II], the MIC in assay [1] amounted to 0.02%; in assay [2], 0.03%; in assay [3], 0.01%; in assay [4], 0.02%; in assay [5], 0.005%.

In the case of `C=C1C(=O)OC[C@@H]1O` [R-(+)-tulipalin B, (4R)-4-hydroxy-3-methylene-oxolan-2-one, reference compound], the Antibacterial effects result in assay [6] is “no antibacterial effects”. Besides, the Antibacterial activity result in assay [7] is on record as “no antibacterial activity”.

Regarding `C/C=C/C=C/C(=O)O` [Sorbic acid, reference compound], the MIC in assay [1] is recorded as 0.03%; in assay [2], 0.04%; in assay [3] it was 0.01%; in assay [4] it was 0.03%; in assay [5], 0.01%.

The values above are taken from patent US20080262082A1, “COMPOSITION CONTAINING S-(-)-TULIPALIN B OR ACETYLATED-S-(-)-TULIPALIN B” (BIO SPECTRUM, INC., priority 2007, published 2008).
